Source: patent publication US8911953B2, “TDF-related compounds and analogs thereof, analogs and bioactive fragments” (Thrasos Innovation, Inc., priority 2005, dated 2014)
Entries after “also recorded” stand apart in the source; their conditions may differ. Positions of bridges follow the written chain, without caps; N, C: chain ends. No end group written: not given here.

Columns and labels:
[1] = test system: LNCaP human prostate cancer cells; test: Smad phosphorylation in LNCaP prostate cancer cells (Western blot); format: cell-based; conditions: for Smad 1, 5, 8 phosphorylation on co-administration: TDFRP compound co-administered with BMP-6, LNCaP cells; for Smad phosphorylation and activation: single agent, cultured LNCaP cells
Experimental: (§1) The detection of Smad phosphorylation by Western analysis, for example in LNCaP (prostate cancer cells) or EC (vascular endothelial cells) in culture medium can be examined after exposure to varying concentrations of TDFRP or control compounds. BMP-7 serves as a positive control. Cells are lysed in RIPA lysis buffer (50 mM Tris-HCl at pH 8.0, 150 mM NaCl, 1% NP-40, 0.5% sodium deoxycholate, 0.1% SDS) containing 1 mM PMSF, 1 mM sodium orthovanadate, and 10 ug/mL proteinase inhibitor cocktail. Lysates are incubated on ice for 15 minutes, centrifuged, and transferred supernatant to a clean tube. 50 to 100 ug is used for analysis by SDS-PAGE. Resolved proteins are electro transferred onto PVDF membrane. The blot is blocked by incubating in 3% non-fat dry milk prepared in PBS at room temperature for 1 hour with constant slow agitation. The blot is incubated with 1-2 ug/mL of primary antibody (rabbit anti-phospho-Smad 1) prepared in PBS-milk, overnight with agitation at 4 degree C., washed twice with PBS, and incubated with secondary antibody (anti rabbit HRP conjugated IgG, 1:3000 dilution) at room temperature for 2 hours with agitation. After washing in PBS-0.05% Tween 20 for 5 minutes and rinsing, Smad phosphorylation is detected via an HRP reaction according to manufacturer's instructions (FIGS. 2, 3, 18, 2X).
(§2) For detection of Smad phosphorylation by Western analysis, LNCaP (prostate cancer cells) or EC (vascular endothelial cells) in culture medium are exposed to varying concentrations of TDFRP or control compounds. BMP-7 served as a positive control. Cells are lysed in RIPA lysis buffer (50 mM Tris-HCl at pH 8.0, 150 mM NaCl, 1% NP-40, 0.5% sodium deoxycholate, 0.1% SDS) containing 1 mM PMSF, 1 mM sodium orthovanadate, and 10 ug/mL proteinase inhibitor cocktail. Lysates are incubated on ice for 15 minutes, centrifuged, and transferred supernatant to a clean tube. 50 to 100 ug is used for analysis by
(§3) SDS-PAGE. Resolved proteins are electro transferred onto PVDF membrane. The blot is blocked by incubating in 3% non-fat dry milk prepared in PBS at room temperature for 1 hour with constant slow agitation. The blot is incubated with 1-2 ug/mL of primary antibody (rabbit anti-phospho-Smad 1) prepared in PBS-milk, overnight with agitation at 4 degree C., washed twice with PBS, and incubated with secondary antibody (anti rabbit HRP conjugated IgG, 1:3000 dilution) at room temperature for 2 hours with agitation. After washing in PBS-0.05% Tween 20 for 5 minutes and rinsing, Smad phosphorylation is detected via an HRP reaction according to manufacturer's instructions (FIGS. 3, 27).
BMP signaling molecules co-administered with TDFRP compounds show synergistic or enhanced downstream signaling as detected by Smad phosphorylation. Smad phosphorylation was assessed by Western analysis in LNCaP (prostate cancer cells) or EC (vascular endothelial cells) cells in culture medium exposed to varying concentrations of TDFRP or control compounds. BMP-7 served as a positive control. Cells are lysed in RIPA lysis buffer (50 mM Tris-HCl at pH 8.0, 150 mM NaCl, 1% NP-40, 0.5% sodium deoxycholate, 0.1% SDS) containing 1 mM PMSF, 1 mM sodium orthovanadate, and 10 ug/mL proteinase inhibitor cocktail. Lysates are incubated on ice for 15 minutes, centrifuged, and transferred supernatant to a clean tube. 50 to 100 ug is used for analysis by SDS-PAGE. Resolved proteins are electro transferred onto PVDF membrane. […]

[2] = test system: vascular endothelial cells; test: Smad 1, 5 phosphorylation in vascular endothelial cells (Western blot); format: cell-based; conditions: added to vascular endothelial cells in culture
Experimental: (§4) Phosphorylation and nuclear translocation of Smads occurs following the activation of Type I and Type II receptors and subsequent signal transduction to intracellular Smad targets. Phosphorylation and nuclear translocation of R-Smad in HK-2, vascular endothelial, human prostate or other cells by TDFRP compounds is assayed by immuno-fluorescent microscopy methods, using anti-phospho Smad 1/5 antibodies according to the procedure of H Aoki, M Fujii, T Imamura, K Yagi, K Takehara, M Kato and K Miyazono. J. of Cell Sci. 114, 1483-1489, 2001) and by Western blot analysis (FIGS. 2, 3, 18, 2X).
as §1
as §4, with “HK-2” for “HK-2, vascular endothelial, human prostate or other”, “analysis in various cell types” for “analysis”, “27).” for “2X).”
as §2, §3

CYFDDSSNVLCKKYRS (disulfide 1-11 (inferred); not fully specified) [SEQ ID NO:45]
Smad 1, 5, 8 phosphorylation on co-administration [1]: enhanced | Smad 1, 5, 8 phosphorylation on co-administration ([1]; listed as SEQ ID NO: 45): enhanced or synergistic activity | Smad phosphorylation and activation [1]: induced | Smad phosphorylation and activation ([1]; listed as SEQ ID NO: 45): phosphorylation and activation of Smad1 and Smad5; also recorded: Smad 1, 5, 8 phosphorylation and activation | phosphorylation and activation of intracellular Smad 1, 5 [2]: phosphorylation and activation of intracellular Smad 1, 5
